Laboratory results from US20260014246A1, “TREATMENT METHODS FOR VIRAL INFECTIONS” (priority 2022, published 2026).
Where two headings read alike, the source gives them in different places. Peptide text beside a SMILES is read from it.

How the values were obtained:
H1N1A-California = format: in vivo, female C57BL/6J mice
SARS-COV-2 Alpha [1] = assay: Rechallenge with active SARS-COV-2 Alpha after EVE18 inactivated SARS-COV-2 Alpha (homologous); format: in vivo, female hACE2 Knock-in mice; conditions: rechallenge with 54000 pfu SARS-COV-2 Alpha eight weeks after initial challenge; 14 days
SARS-COV-2 Delta [2] = assay: Rechallenge with active SARS-COV-2 Delta after EVE18 inactivated SARS-COV-2 Alpha (heterologous); format: in vivo, female hACE2 Knock-in mice; conditions: rechallenge with 54000 pfu SARS-COV-2 Delta nine and seven weeks after initial challenge; two groups; 14 days
SARS-COV-2 Alpha [3] = assay: SARS-COV-2 Alpha pre-incubated with peptide and given intranasally to mice; format: in vivo, female hACE2 Knock-in mice; conditions: 54000 pfu pre-incubated ~45 min with 10 μM peptide; intranasal; 14 days
SARS-COV-2 Delta [4] = assay: SARS-COV-2 Delta pre-incubated with EVE18 and given intranasally to mice; format: in vivo, female hACE2 Knock-in mice; conditions: 54000 pfu SARS-COV-2 Delta pre-incubated ~45 min with 10 μM peptide; intranasal; 14 days
SARS-COV-2 Alpha [5] = assay: Therapeutic dosing of EVE18 in mice challenged with SARS-COV-2 Alpha; format: in vivo, female hACE2 Knock-in mice
H1N1 [6] = assay: Second challenge with active H1N1 after intranasal peptide-inactivated H1N1; format: in vivo, female C57BL/6J mice; conditions: 14 days
H1N1 [7] = assay: Sub-cutaneous EVE14 in mice challenged intranasally with H1N1; format: in vivo, female C57BL/6J mice
H1N1 [8] = assay: Second H1N1 challenge of mice that received H1N1 and sub-cutaneous EVE14; format: in vivo, female C57BL/6J mice; conditions: second challenge 1200 pfu H1N1 three weeks after the first
SARS-COV-2 Alpha [9] = conditions: for IC50: Alpha
Vero-E6 cells = assay: Cytotoxic effects in Vero-E6 cells (Reliablue viability); format: cell-based
Method: Data for peptide 4F (Ac-[…]-NH2; SEQ ID NO: 34) is also provided. In this example, Vero-E6 cells (96 well plate) were grown in EMEM containing 10% FBS and Pen/Strep at 37° C. and 5% CO2. Once cells reached 80% confluence, medium was replaced with fresh complete medium containing the indicated concentration of peptide (FIGS. 6A-B) or peptide complexed with DMPC (1:5 ratio weight:weight). Incubation period proceeded for 24 or 48 hrs. Cells were washed and replaced with complete medium containing fluorescent Reliablue reagent. Viability was then measured. Data are presented as percent viability compared to control (no additions). Results are presented as the mean±SEM.

SARS-COV-2 Alpha [10] = assay: Remdizivir treatment of mice challenged with SARS-COV-2 Alpha; format: in vivo, female hACE2 Knock-in mice; conditions: 25 mg/kg bodyweight, single dose; 54000 pfu intranasal; untreated mice 20%
[11] = 300 micrograms sub-cutaneous 2 hr prior to virus and second dose 24 hr after virus
[12] = [peptide-lipid] complex (DMPC 1:5 weight:weight), 48 hours incubation

Ac-GFRRFYGSIWRFIRAFVG-NH2 [EVE18]
bodyweight loss (H1N1A-California; 14 days): No mouse in this group died or lost significant bodyweight
mortality (frank mortality or weight loss of 25%) (H1N1A-California; 14 days): No mouse in this group died
rechallenged mice survived (SARS-COV-2 Alpha [1]): ~75%
survival (SARS-COV-2 Delta [2]): 85%
survival (SARS-COV-2 Alpha [3]): All mice in this group survived
survival (SARS-COV-2 Delta [4]): All mice in this group survived
mortality (timing) (SARS-COV-2 Alpha [5]; 300 micrograms 24 hr, 48 hr and 72 hrs after 54000 pfu virus): delayed mortality
survival (SARS-COV-2 Alpha [5]; 300 micrograms 24 hr, 48 hr and 72 hrs after 54000 pfu virus, 10 days, virus alone 20%): 50%
mortality (timing) (SARS-COV-2 Alpha [5]; [11]): delayed the mortality
survival (SARS-COV-2 Alpha [5]; [11]): 70%
mortality after rechallenge (H1N1 [6]; mice first given peptide-treated H1N1 (~45 min, ~10 μM), rechallenged several weeks later with 1200 pfu active H1N1A-California): No mouse in this group died during this period

Ac-RRFYGSIWRFIRAF-NH2 [EVE14]
weight loss (H1N1 [7]; 300 micrograms sub-cutaneously plus 150 microgram boosters (24, 48 hr or 24-96 hr), 1200 pfu H1N1 intranasal, compared to untreated mice): significant delay in their weight loss which also was blunted
weight loss (H1N1 [7]; Example 13, FIG. 14: 1200 pfu H1N1 intranasal, peptide sub-cutaneously): much reduced weight loss
survival (or bodyweight loss of less than 25%) (H1N1 [7]; both sub-cutaneous treatment groups compared to H1N1 alone): significantly increased survival
bodyweight loss (H1N1A-California; 14 days): incapable of inducing weight loss or frank death
death (frank death or 25% decrease in bodyweight) (H1N1A-California; 14 days): incapable of inducing death
mortality (frank mortality or weight loss of 25%) (H1N1A-California; 14 days): No mice in this group died
weight loss (H1N1A-California; 14 days): incapable of inducing weight loss
survival (H1N1A-California; mouse, in vivo): survived this initial challenge
weight loss (H1N1A-California; mouse, in vivo): lost little weight
mice survived (SARS-COV-2 Alpha [3]): Ninety
mortality or weight loss after second challenge (H1N1 [8]): does not elicit mortality or weight loss
bodyweight loss after second challenge (H1N1 [6]; mice first given H1N1A pre-incubated with peptide for 60 minutes, second challenge 1200 pfu active H1N1 several weeks later): no mouse in the group which underwent a second H1N1 challenge lost significant bodyweight

CC[C@H](C)[C@H](NC(=O)[C@H](CCCNC(=N)N)NC(=O)[C@H](C)NC(=O)[C@H](Cc1c[nH]c2ccccc12)NC(=O)[C@H](CO)NC(=O)CNC(=O)[C@H](CC(C)C)NC(=O)[C@H](Cc1ccccc1)NC(=O)[C@H](CCCNC(=N)N)NC(=O)[C@H](CCCNC(=N)N)NC(=O)[C@H](Cc1ccccc1)NC(=O)CNC(C)=O)C(=O)N[C@@H](Cc1ccc(O)cc1)C(=O)N[C@@H](CCCNC(=N)N)C(=O)N[C@@H](C)C(=O)N[C@@H](Cc1ccccc1)C(=O)N[C@H](C(=O)NCC(N)=O)C(C)C [EVEmR18L, Ac-GFRRFLGSWARIYRAFVG-NH2] (Ac-GFRRFLGSWARIYRAFVG-NH2)
antiviral activity in comparison to remdesivir (SARS-COV-2 Alpha [9]): greater antiviral activity than remdesivir
reduction of the SARS-COV-2 positive area (SARS-COV-2 Alpha [9]; 1 μM): approximately 80%
SARS-COV-2 positive area reduced to (SARS-COV-2 Alpha [9]; 10 μM): ~0
IC50 (SARS-COV-2 Alpha [9]): 3 to 4.5 µM
cytotoxic effects (Vero-E6 cells; [12]): lack of cytotoxic effects
cytotoxic effects (Vero-E6 cells; peptide, 24 hours incubation): lack of cytotoxic effects
cytotoxic effects (Vero-E6 cells; peptide, 48 hours incubation): lack of cytotoxic effects

CC(=O)N[C@@H](CC(C)C)C(=O)N[C@@H](CCCNC(=N)N)C(=O)N[C@@H](CCCCN)C(=O)N[C@@H](CC(C)C)C(=O)N[C@@H](CCCNC(=N)N)C(=O)N[C@@H](CCCCN)C(=O)N[C@@H](CCCNC(=N)N)C(=O)N[C@@H](CC(C)C)C(=O)N[C@@H](CC(C)C)C(=O)N[C@@H](CCCNC(=N)N)C(=O)N[C@@H](CC(=O)O)C(=O)N[C@@H](Cc1c[nH]c2ccccc12)C(=O)N[C@@H](CC(C)C)C(=O)N[C@@H](CCCCN)C(=O)N[C@@H](C)C(=O)N[C@@H](Cc1ccccc1)C(=O)N[C@@H](Cc1ccc(O)cc1)C(=O)N[C@@H](CC(=O)O)C(=O)N[C@@H](CCCCN)C(=O)N[C@H](C(=O)N[C@@H](C)C(=O)N[C@@H](CCC(=O)O)C(=O)N[C@@H](CCCCN)C(=O)N[C@@H](CC(C)C)C(=O)N[C@@H](CCCCN)C(=O)N[C@@H](CCC(=O)O)C(=O)N[C@@H](C)C(=O)N[C@@H](Cc1ccccc1)C(N)=O)C(C)C [EVE4] (Ac-LRKLRKRLLRDWLKAFYDKVAEKLKEAF-NH2)
antiviral activity in comparison to remdesivir (SARS-COV-2 Alpha [9]): greater antiviral activity than remdesivir
SARS-COV-2 positive area reduced to (SARS-COV-2 Alpha [9]; 1 μM): ~0
IC50 (SARS-COV-2 Alpha [9]): 3 to 4.5 µM
cytotoxic effects (Vero-E6 cells; [12]): lack of cytotoxic effects
cytotoxic effects (Vero-E6 cells; peptide, 24 hours incubation): lack of cytotoxic effects
cytotoxic effects (Vero-E6 cells; peptide, 48 hours incubation): lack of cytotoxic effects

CCC(CC)COC(=O)[C@H](C)N[P@](=O)(OC[C@H]1O[C@@](C#N)(c2ccc3c(N)ncnn23)[C@H](O)[C@@H]1O)Oc1ccccc1 [remdesivir, reference compound]
reduction of the SARS-COV-2 positive area (SARS-COV-2 Alpha [9]; 1 μM): approximately 65%
mouse survival (SARS-COV-2 Alpha [10]): 40%
